Test system: mice with chronic constriction injury
Test: Chronic constriction injury (CCI) model, paw withdrawal thresholds to von Frey filaments
Assay type: in vivo, mouse
Details: CCI, systemic treatment
Source text: In deeply anaesthetized mice using isoflurane delivered in 100% 02 (Univentor 410 Anaesthesia unit; Univentor, Malta), four loose silk (5/0; Catgut GmbH Markneukirchen) ligatures were placed around the sciatic nerve at the level of the right mid-thigh as described previously (Wetzel et al., 2007).
Mice were allowed to habituate to the testing apparatus (acrylic chambers 10×10 cm in size, suspended above a wired mesh grid) one hour prior to behavioral testing. Only once the subject was at rest and not moving, calibrated von-Frey hair monofilaments (Aesthesio® set of 20 monofilaments, Ugo Basil) were applied to the plantar surface of the hind paw in order to deliver target forces from 0.008 grams to 4 grams increasing in an approximately logarithmic scale. A single stimulus indicated by a slight bending of the filament lasted for two seconds unless the mouse withdrew its paw. In order to measure mechanosensitivity the up-and-down method described by Chaplan^13 was adapted as follows: Testing began with a filament delivering a target force of 0.4 g, but filaments were applied three times. A positive response was noted if the subject withdrew the paw to all three filament applications, so that the successively smaller filament was presented next. […] Paw withdrawal thresholds were calculated as median of 23 to 30 determined turning points of the particular force stimuli applied to the subject.
Drug injections of OB-1 or DMSO alone were dissolved in Ringer's solution (in mM: 135 NaCl, 5 KCl, 5 HEPES, 1.8 CaCl2), 1 MgCl2) to make the OB-1 and vehicle solution. Injections were made 3 hours prior to behavioral testing, approximately 20 μl solution, 250 pmol per paw, was injected into the palm with a Hamilton syringe, gauge 33. During the injection procedure, the mouse was anaesthetized with isoflurane (1.5 to 2.5% in 02). The injection procedure lasted around 3 minutes after which the mouse was moved to the home cage for recovery before behavioral testing.
We next interrogated whether local application of OB-1 can ameliorate tactile-evoked pain behavior in neuropathic models. […] We decided to test this idea more directly by testing the effects of local OB-1 on the mechanical sensitivity of Stoml3^−/− mice with CCI. […] Off-target effects are an issue for any biologically active small molecule. We therefore tested the effects of 20 μM OB-1 in a commercially available in vitro pharmacology panel (www.cerep.fr) consisting of 79 receptors and ion channels.

NCC1(CC(=O)O)CCCCC1 [gabapentin, reference compound]
tactile allodynia: reversal of tactile allodynia

From US11384071B2, “Inhibitors of mechanotransduction to treat pain and modulate touch perception” (Max-Delbrück-Centrum für Molekulare Medizin in der …, priority 2016, dated 2022)
